Results on two compounds are retold here after ChEMBL document CHEMBL4706583, “2-Anilinoquinoline based arylamides as broad spectrum anticancer agents with B-RAF/C-RAF kinase inhibitory effects: Design, synthesis, in vitro cell-based and oncogenic kinase assessments” (Eur J Med Chem, 2020).

For test [1], the target named is RAF proto-oncogene serine/threonine-protein kinase (Homo sapiens, UniProt P04049). The experiment in a line: Inhibition of human CRAF at 10 uM using MEK1 (K97R) as substrate in presence of [gamma-33P]ATP by scintillation counting method relative to control.
RAF proto-oncogene serine/threonine-protein kinase, sequence (P04049 whole entry): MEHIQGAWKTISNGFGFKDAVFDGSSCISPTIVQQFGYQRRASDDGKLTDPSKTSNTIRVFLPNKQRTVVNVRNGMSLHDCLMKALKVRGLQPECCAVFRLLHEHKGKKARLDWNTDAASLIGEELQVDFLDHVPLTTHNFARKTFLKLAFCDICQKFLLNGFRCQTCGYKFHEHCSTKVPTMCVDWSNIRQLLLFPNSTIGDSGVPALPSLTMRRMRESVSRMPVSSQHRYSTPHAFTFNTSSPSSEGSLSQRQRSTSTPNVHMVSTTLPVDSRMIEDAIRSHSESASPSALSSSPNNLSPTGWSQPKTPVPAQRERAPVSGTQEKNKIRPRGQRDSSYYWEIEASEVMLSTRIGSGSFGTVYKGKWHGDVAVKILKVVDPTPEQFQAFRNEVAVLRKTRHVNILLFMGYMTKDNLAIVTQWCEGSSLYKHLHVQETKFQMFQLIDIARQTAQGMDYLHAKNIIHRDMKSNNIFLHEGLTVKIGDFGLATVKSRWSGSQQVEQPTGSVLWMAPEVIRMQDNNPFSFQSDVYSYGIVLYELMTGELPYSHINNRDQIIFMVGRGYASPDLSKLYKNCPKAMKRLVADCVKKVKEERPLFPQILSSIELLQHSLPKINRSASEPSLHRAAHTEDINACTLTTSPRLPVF
Test [2] addresses High affinity nerve growth factor receptor (Homo sapiens, UniProt P04629). Nature of the test: Inhibition of human TRKA at 10 uM using poly[Glu:Tyr] (4:1) as substrate in presence of [gamma-33P]ATP by scintillation counting method relative to control.
For test [3], the system named is HCT-116. The experiment in a line: Cell cycle arrest in human HCT-116 cells assessed as accumulation at sub-G1 phase at 5 uM measured after 48 hrs by propidium iodide staining based flow cytometry (reference value: 17%). The format is functional. (Flow cytometry measures light scatter and fluorescence of single cells or particles in a stream.)
Test [4] addresses Macrophage colony-stimulating factor 1 receptor (Homo sapiens) (UniProt P07333). Nature of the test: Inhibition of human FMS at 10 uM using poly[Glu:Tyr] (4:1) as substrate in presence of [gamma-33P]ATP by scintillation counting method relative to control.
The test system of test [5] is Serine/threonine-protein kinase B-raf (Homo sapiens), P15056 [V600E]. Nature of the test: Inhibition of human BRAF V600E mutant at 10 uM using MEK1 (K97R) as substrate in presence of [gamma-33P]ATP by scintillation counting method relative to control.
Serine/threonine-protein kinase B-raf (Homo sapiens), P15056 [V600E], sequence (P15056 whole entry V600E): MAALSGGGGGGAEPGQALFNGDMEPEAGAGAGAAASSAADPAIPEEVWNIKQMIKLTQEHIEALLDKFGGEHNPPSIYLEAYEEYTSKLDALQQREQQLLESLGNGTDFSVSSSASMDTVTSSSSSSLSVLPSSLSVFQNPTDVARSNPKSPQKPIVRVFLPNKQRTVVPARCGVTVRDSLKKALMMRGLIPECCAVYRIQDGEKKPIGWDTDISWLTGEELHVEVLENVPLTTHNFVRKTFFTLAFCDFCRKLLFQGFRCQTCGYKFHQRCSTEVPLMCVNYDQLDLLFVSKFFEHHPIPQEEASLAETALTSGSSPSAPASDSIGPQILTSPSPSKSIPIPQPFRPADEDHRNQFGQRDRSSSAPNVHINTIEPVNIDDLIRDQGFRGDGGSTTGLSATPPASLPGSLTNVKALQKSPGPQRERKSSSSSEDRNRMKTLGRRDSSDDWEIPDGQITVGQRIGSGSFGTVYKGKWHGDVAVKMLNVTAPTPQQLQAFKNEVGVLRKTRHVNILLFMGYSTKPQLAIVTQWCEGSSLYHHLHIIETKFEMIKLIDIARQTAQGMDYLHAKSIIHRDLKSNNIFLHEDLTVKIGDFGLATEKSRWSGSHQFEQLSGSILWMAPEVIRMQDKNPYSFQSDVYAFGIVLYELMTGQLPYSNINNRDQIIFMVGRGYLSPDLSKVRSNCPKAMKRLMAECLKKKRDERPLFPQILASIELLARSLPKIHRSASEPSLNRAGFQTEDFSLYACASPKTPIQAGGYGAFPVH
The subject of test [6] is HCT-116. Nature of the test: Cell cycle arrest in human HCT-116 cells assessed as accumulation at G2/M phase at 5 uM measured after 24 hrs by propidium iodide staining based flow cytometry (reference value: 19.2%). The format is functional.
The subject of test [7] is HCT-116. Nature of the test: Cell cycle arrest in human HCT-116 cells assessed as accumulation at G2/M phase at 1.25 uM measured after 24 hrs by propidium iodide staining based flow cytometry (reference value: 19.2%). The format is functional.
The test system of test [8] is HCT-116. Nature of the test: Cell cycle arrest in human HCT-116 cells assessed as accumulation at G1/G0 phase at 1.25 uM measured after 24 hrs by propidium iodide staining based flow cytometry (reference value: 65%). The format is functional.
Test [9] deals with HCT-116. Nature of the test: Cell cycle arrest in human HCT-116 cells assessed as accumulation at G2/M phase at 2.5 uM measured after 24 hrs by propidium iodide staining based flow cytometry (reference value: 19.2%). In kind it is functional.
Test [10] deals with HCT-116. Nature of the test: Cell cycle arrest in human HCT-116 cells assessed as accumulation at sub-G1 phase at 5 uM measured after 24 hrs by propidium iodide staining based flow cytometry (reference value: 8.7%). In kind it is functional.
The subject of test [11] is HCT-116. The experiment in a line: Cell cycle arrest in human HCT-116 cells assessed as accumulation at G1/G0 phase at 2.5 uM measured after 24 hrs by propidium iodide staining based flow cytometry (reference value: 65%). The format is functional.

High affinity nerve growth factor receptor, sequence (P04629 33-796 limits assumed): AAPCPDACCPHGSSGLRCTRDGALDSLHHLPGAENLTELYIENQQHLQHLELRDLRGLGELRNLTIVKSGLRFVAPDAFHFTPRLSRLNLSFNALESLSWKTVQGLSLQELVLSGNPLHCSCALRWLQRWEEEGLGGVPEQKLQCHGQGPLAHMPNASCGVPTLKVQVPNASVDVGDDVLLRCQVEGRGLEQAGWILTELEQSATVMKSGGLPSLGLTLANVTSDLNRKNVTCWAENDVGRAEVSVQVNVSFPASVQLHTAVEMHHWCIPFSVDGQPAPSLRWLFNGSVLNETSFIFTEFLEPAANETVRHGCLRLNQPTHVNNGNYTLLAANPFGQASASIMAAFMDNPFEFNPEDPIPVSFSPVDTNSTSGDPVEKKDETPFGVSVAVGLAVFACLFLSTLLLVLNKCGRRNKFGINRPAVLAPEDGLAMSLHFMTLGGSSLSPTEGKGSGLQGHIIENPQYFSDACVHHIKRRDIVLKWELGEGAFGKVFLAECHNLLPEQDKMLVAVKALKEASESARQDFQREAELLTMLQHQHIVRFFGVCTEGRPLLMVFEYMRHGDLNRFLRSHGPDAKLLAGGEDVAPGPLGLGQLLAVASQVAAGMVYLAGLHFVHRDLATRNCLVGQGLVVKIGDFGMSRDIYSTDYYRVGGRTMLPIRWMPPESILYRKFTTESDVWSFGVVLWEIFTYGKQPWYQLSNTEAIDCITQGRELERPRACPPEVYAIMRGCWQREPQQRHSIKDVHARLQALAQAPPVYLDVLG
Macrophage colony-stimulating factor 1 receptor (Homo sapiens), sequence (P07333 whole entry): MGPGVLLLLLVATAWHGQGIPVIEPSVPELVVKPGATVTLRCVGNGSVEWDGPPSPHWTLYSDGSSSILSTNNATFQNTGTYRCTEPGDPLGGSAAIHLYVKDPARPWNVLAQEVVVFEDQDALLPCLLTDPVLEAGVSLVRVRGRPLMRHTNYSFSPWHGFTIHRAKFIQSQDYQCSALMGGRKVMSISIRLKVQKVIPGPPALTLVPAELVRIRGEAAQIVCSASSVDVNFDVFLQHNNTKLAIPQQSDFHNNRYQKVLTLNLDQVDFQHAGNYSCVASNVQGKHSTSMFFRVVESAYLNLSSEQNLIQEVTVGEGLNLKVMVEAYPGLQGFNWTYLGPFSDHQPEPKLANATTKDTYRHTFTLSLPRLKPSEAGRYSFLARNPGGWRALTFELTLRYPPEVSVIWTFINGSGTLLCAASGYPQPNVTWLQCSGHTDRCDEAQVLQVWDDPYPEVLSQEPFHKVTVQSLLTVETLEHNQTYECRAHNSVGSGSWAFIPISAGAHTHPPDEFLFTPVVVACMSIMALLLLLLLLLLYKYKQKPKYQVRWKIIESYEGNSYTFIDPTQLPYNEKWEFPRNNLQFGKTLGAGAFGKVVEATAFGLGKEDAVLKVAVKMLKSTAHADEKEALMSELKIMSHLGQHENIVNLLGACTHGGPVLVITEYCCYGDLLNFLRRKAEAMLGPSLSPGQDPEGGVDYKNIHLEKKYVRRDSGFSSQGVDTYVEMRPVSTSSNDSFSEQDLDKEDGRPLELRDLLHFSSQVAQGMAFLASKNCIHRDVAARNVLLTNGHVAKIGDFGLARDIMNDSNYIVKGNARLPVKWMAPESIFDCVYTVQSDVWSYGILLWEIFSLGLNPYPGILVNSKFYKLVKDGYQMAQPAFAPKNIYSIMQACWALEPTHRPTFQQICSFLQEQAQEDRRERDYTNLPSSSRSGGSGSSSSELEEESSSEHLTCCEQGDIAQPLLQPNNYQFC

With `CCN1CCN(c2cc(C(=O)Nc3cccc(Nc4ccc5c(OC)cccc5n4)c3)cc(C(F)(F)F)c2)CC1`, the inhibition was determined as 94.4% in test [1], 88% in [2], 60.7% in test [4] and 94.4% in [5]. Besides, the Activity in the test with HCT-116 [3] was determined as 14.1%.
For the compound `COc1cccc2nc(Nc3cccc(NC(=O)c4ccc(N5CCN(C)CC5)c(C(F)(F)F)c4)c3)ccc12`, the Activity in the test on HCT-116 [6] came to 13.7%; with HCT-116 [7], 15.6%; in the test with HCT-116 [8] it was 66.6%; in the test on HCT-116 [9], 15.1%; in the test with HCT-116 [10], 9.1%; in the test on HCT-116 [11], 69.7%.

Broadly, the inhibition is the relative decrease from the control value, in per cent.
